From PubChem BioAssay (NCI) come the findings set out here.

Each structure is given as a SMILES string.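 Where inhibition never reached the appropriate level, the endpoint shown equals the highest concentration tested. Otherwise, values were interpolated linearly from a five-concentration, 48-hour dose response in 96-well plates. Abbreviation: GI50, concentration required for 50% inhibition of growth. TGI: total growth inhibition.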

The first assay relates to SNB-19 CNS. The experiment in a line: NCI-60 cell line screen, 48 h.
`COC1=CC(=O)C(C2CC(=O)c3c(O)cc(O)cc3O2)=CC1=O` (stereo not given) gave a TGI of 68.2 µM.
Consider `COc1cc(/C=C/c2cc(O)c(C(C)=O)c(O)c2)cc2c1O[C@]1(C)CC[C@@H](O)C(C)(C)[C@H]1C2`, for which the GI50 is 7.46 µM and the TGI is > 100 µM.
As for `CC(C)C(C)/C=C\C(C)C1CCC2C3=CC=C4CC(O)CCC4(C)C3CCC21C` (stereo not given), the TGI is > 100 µM.
With `Cc1cc2c(cc1Cl)SC(N(N(C)C)S(=O)(=O)c1ccc(Cl)cc1)=NS2(=O)=O`, the GI50 is 25.2 µM and the TGI is > 100 µM.
Take `Nc1ncnc2n[nH]c(Nc3ccc(F)cc3)c12`: the GI50 is 61.7 µM and the TGI is > 100 µM.
Regarding `OC(c1nc2ccccc2[nH]1)C(O)C(O)C(O)c1nc2ccccc2[nH]1` (stereo not given), the TGI was > 100 µM.
On to `CCOC(=O)c1cc2nc3ccccc3c(=O)n2c2ccccc12`, for which the TGI was > 10 µM.
Same read-out and setting: for `Cc1cc(O)c(/C=N/C(=S)NCc2ccccc2)c(=O)o1` the value was > 100 µM.
For the molecule `Cc1cc(I)cc(CN(C)CCCN2CCCCC2)c1O`, the GI50 was 17.4 µM and the TGI was determined as 40.2 µM.
`CC(C)(C)OC(=O)N[C@H]1CC2(C=C(Cl)C(=O)C(Cl)=C2)OC1=O`: the TGI is > 100 µM.
In the case of `COc1cccc(-c2nc(-c3ccc(NC(=O)C(C)C)cc3)[nH]c2-c2ccnc(Br)c2)c1`, the GI50 is 3.76 µM and the TGI is > 100 µM.
The like results for `O=C(CSc1ccc(Cl)cc1)Nc1ccc(-c2nc3ccccc3s2)c(Cl)c1` were, in that order, 4.31 µM and 74.2 µM.
The like results for `COc1cc2c3c(n(C)c(=O)c2cc1OC)-c1cc2c(cc1/C3=C\CCN)OCO2` were, in that order, 0.394 µM and 16.3 µM.

In the next assay the test system is UACC-62 melanoma. The experiment in a line: NCI-60 cell line screen, 48 h.
In turn, `COC1=CC(=O)C(C2CC(=O)c3c(O)cc(O)cc3O2)=CC1=O` (stereo not given) returned a TGI of 31.3 µM.
In the case of `COc1cc(/C=C/c2cc(O)c(C(C)=O)c(O)c2)cc2c1O[C@]1(C)CC[C@@H](O)C(C)(C)[C@H]1C2`, the GI50 was 2.89 µM and the TGI was 11.5 µM.
Regarding `CC(C)C(C)/C=C\C(C)C1CCC2C3=CC=C4CC(O)CCC4(C)C3CCC21C` (stereo not given), the TGI was > 66.6 µM.
Take `Cc1cc2c(cc1Cl)SC(N(N(C)C)S(=O)(=O)c1ccc(Cl)cc1)=NS2(=O)=O`: the GI50 is 22 µM and the TGI turned out to be 56.1 µM.
The like results for `Nc1ncnc2n[nH]c(Nc3ccc(F)cc3)c12` were, in that order, 20.8 µM and > 100 µM.
For `OC(c1nc2ccccc2[nH]1)C(O)C(O)C(O)c1nc2ccccc2[nH]1` (stereo not given), the TGI is > 100 µM.
`CCOC(=O)c1cc2nc3ccccc3c(=O)n2c2ccccc12`: the TGI was > 10 µM.
On the same count and under the same terms, for `Cc1cc(O)c(/C=N/C(=S)NCc2ccccc2)c(=O)o1` the value was > 100 µM.
For `Cc1cc(I)cc(CN(C)CCCN2CCCCC2)c1O`, the GI50 was 14.2 µM and the TGI is 41.6 µM.
In the case of `CC(C)(C)OC(=O)N[C@H]1CC2(C=C(Cl)C(=O)C(Cl)=C2)OC1=O`, the TGI worked out at 30.6 µM.
Regarding `COc1cccc(-c2nc(-c3ccc(NC(=O)C(C)C)cc3)[nH]c2-c2ccnc(Br)c2)c1`, the GI50 was 2.57 µM and the TGI is 7.99 µM.
The like results for `O=C(CSc1ccc(Cl)cc1)Nc1ccc(-c2nc3ccccc3s2)c(Cl)c1` were, in that order, 2.77 µM and 15.1 µM.
`COc1cc2c3c(n(C)c(=O)c2cc1OC)-c1cc2c(cc1/C3=C\CCN)OCO2`: the GI50 is 0.185 µM and the TGI is 4.41 µM.

For another assay, the system named is T-47D breast. The experiment in a line: NCI-60 cell line screen, 48 h.
For `COC1=CC(=O)C(C2CC(=O)c3c(O)cc(O)cc3O2)=CC1=O` (stereo not given), the TGI was 42.7 µM.
Regarding `COc1cc(/C=C/c2cc(O)c(C(C)=O)c(O)c2)cc2c1O[C@]1(C)CC[C@@H](O)C(C)(C)[C@H]1C2`, the GI50 was 6.22 µM and the TGI came to 64.6 µM.
Turning to `CC(C)C(C)/C=C\C(C)C1CCC2C3=CC=C4CC(O)CCC4(C)C3CCC21C` (stereo not given), the TGI is > 100 µM.
With `Cc1cc2c(cc1Cl)SC(N(N(C)C)S(=O)(=O)c1ccc(Cl)cc1)=NS2(=O)=O`, the GI50 was 15.8 µM and the TGI was > 100 µM.
The like results for `Nc1ncnc2n[nH]c(Nc3ccc(F)cc3)c12` were, in that order, 21.1 µM and > 100 µM.
On to `OC(c1nc2ccccc2[nH]1)C(O)C(O)C(O)c1nc2ccccc2[nH]1` (stereo not given), for which the TGI is > 100 µM.
Take `CCOC(=O)c1cc2nc3ccccc3c(=O)n2c2ccccc12`: the TGI is > 10 µM.
Still for that read-out and setting: for `Cc1cc(O)c(/C=N/C(=S)NCc2ccccc2)c(=O)o1` the value was > 100 µM.
In the case of `Cc1cc(I)cc(CN(C)CCCN2CCCCC2)c1O`, the GI50 was 15.8 µM and the TGI came to 43 µM.
`CC(C)(C)OC(=O)N[C@H]1CC2(C=C(Cl)C(=O)C(Cl)=C2)OC1=O` gave a TGI of 40.5 µM.
In the case of `COc1cccc(-c2nc(-c3ccc(NC(=O)C(C)C)cc3)[nH]c2-c2ccnc(Br)c2)c1`, the GI50 was 2.56 µM and the TGI is 11.5 µM.
The like results for `O=C(CSc1ccc(Cl)cc1)Nc1ccc(-c2nc3ccccc3s2)c(Cl)c1` were, in that order, 2.54 µM and 8.63 µM.
The like results for `COc1cc2c3c(n(C)c(=O)c2cc1OC)-c1cc2c(cc1/C3=C\CCN)OCO2` were, in that order, 1.08 µM and > 100 µM.

The test system of another assay is HL-60(TB) leukemia. The experiment in a line: NCI-60 cell line screen, 48 h.
As to `COC1=CC(=O)C(C2CC(=O)c3c(O)cc(O)cc3O2)=CC1=O` (stereo not given), the TGI was > 21.3 µM.
In the case of `COc1cc(/C=C/c2cc(O)c(C(C)=O)c(O)c2)cc2c1O[C@]1(C)CC[C@@H](O)C(C)(C)[C@H]1C2`, the GI50 was 4.13 µM and the TGI was 23.8 µM.
As to `CC(C)C(C)/C=C\C(C)C1CCC2C3=CC=C4CC(O)CCC4(C)C3CCC21C` (stereo not given), the TGI was > 77.7 µM.
Regarding `Cc1cc2c(cc1Cl)SC(N(N(C)C)S(=O)(=O)c1ccc(Cl)cc1)=NS2(=O)=O`, the GI50 is 35.2 µM and the TGI worked out at 89.8 µM.
As for `Nc1ncnc2n[nH]c(Nc3ccc(F)cc3)c12`, the GI50 is 38.5 µM and the TGI is > 100 µM.
Take `OC(c1nc2ccccc2[nH]1)C(O)C(O)C(O)c1nc2ccccc2[nH]1` (stereo not given): the TGI is > 100 µM.
Still for that read-out and setting: for `CCOC(=O)c1cc2nc3ccccc3c(=O)n2c2ccccc12` the value was > 10 µM.
Consider `Cc1cc(O)c(/C=N/C(=S)NCc2ccccc2)c(=O)o1`, for which the TGI is > 100 µM.
Turning to `Cc1cc(I)cc(CN(C)CCCN2CCCCC2)c1O`, the GI50 was 12.7 µM and the TGI was found to be 29.7 µM.
Consider `CC(C)(C)OC(=O)N[C@H]1CC2(C=C(Cl)C(=O)C(Cl)=C2)OC1=O`, for which the TGI was 6.53 µM.
Regarding `COc1cccc(-c2nc(-c3ccc(NC(=O)C(C)C)cc3)[nH]c2-c2ccnc(Br)c2)c1`, the GI50 was 1.56 µM and the TGI was found to be 5.24 µM.
On to `O=C(CSc1ccc(Cl)cc1)Nc1ccc(-c2nc3ccccc3s2)c(Cl)c1`, for which the GI50 is 13.4 µM and the TGI was > 100 µM.
The like results for `COc1cc2c3c(n(C)c(=O)c2cc1OC)-c1cc2c(cc1/C3=C\CCN)OCO2` were, in that order, 0.236 µM and 1.52 µM.

The next assay concerns NCI-H460 lung. The experiment in a line: NCI-60 cell line screen, 48 h.
As to `COC1=CC(=O)C(C2CC(=O)c3c(O)cc(O)cc3O2)=CC1=O` (stereo not given), the TGI was 51.8 µM.
With `COc1cc(/C=C/c2cc(O)c(C(C)=O)c(O)c2)cc2c1O[C@]1(C)CC[C@@H](O)C(C)(C)[C@H]1C2`, the GI50 is 6.26 µM and the TGI came to 57.5 µM.
In the case of `CC(C)C(C)/C=C\C(C)C1CCC2C3=CC=C4CC(O)CCC4(C)C3CCC21C` (stereo not given), the TGI was > 53.3 µM.
For `Cc1cc2c(cc1Cl)SC(N(N(C)C)S(=O)(=O)c1ccc(Cl)cc1)=NS2(=O)=O`, the GI50 is 16.9 µM and the TGI turned out to be 45.5 µM.
The like results for `Nc1ncnc2n[nH]c(Nc3ccc(F)cc3)c12` were, in that order, 16.3 µM and > 100 µM.
Regarding `OC(c1nc2ccccc2[nH]1)C(O)C(O)C(O)c1nc2ccccc2[nH]1` (stereo not given), the TGI was > 100 µM.
Still for that read-out and setting: next, `CCOC(=O)c1cc2nc3ccccc3c(=O)n2c2ccccc12`: > 10 µM; `Cc1cc(O)c(/C=N/C(=S)NCc2ccccc2)c(=O)o1`: > 100 µM.
For the molecule `Cc1cc(I)cc(CN(C)CCCN2CCCCC2)c1O`, the GI50 was 12.5 µM and the TGI amounted to 26.2 µM.
In turn, `CC(C)(C)OC(=O)N[C@H]1CC2(C=C(Cl)C(=O)C(Cl)=C2)OC1=O` came in with a TGI of 56.2 µM.
Turning to `COc1cccc(-c2nc(-c3ccc(NC(=O)C(C)C)cc3)[nH]c2-c2ccnc(Br)c2)c1`, the GI50 was 3.2 µM and the TGI was 21.3 µM.
As for `O=C(CSc1ccc(Cl)cc1)Nc1ccc(-c2nc3ccccc3s2)c(Cl)c1`, the GI50 was 3.41 µM and the TGI came to 16 µM.
The like results for `COc1cc2c3c(n(C)c(=O)c2cc1OC)-c1cc2c(cc1/C3=C\CCN)OCO2` were, in that order, 0.0147 µM and 1.81 µM.
